Assay results from ChEMBL document CHEMBL4376822, “Hot-Spots of Mcl-1 Protein” (J Med Chem, 2020).
One block for each compound: values may come before it.

Columns and labels:
[1] = target: T1, Apoptosis regulator Bcl-2 (Homo sapiens, UniProt P10415); experiment: Inhibition of human BCl2 expressed in Escherichia coli BL21 (DE3) pLysS cells by surface plasmon resonance assay
[2] = Inhibition of human GST-tagged BCL-XL deltaC25 mutant using biotinylated BIM 26-mer peptide as substrate incubated for 30 mins by AlphaScreen assay
[3] = target: T2, Induced myeloid leukemia cell differentiation protein Mcl-1 (Homo sapiens, UniProt Q07820)
T2 sequence (Q07820 whole entry): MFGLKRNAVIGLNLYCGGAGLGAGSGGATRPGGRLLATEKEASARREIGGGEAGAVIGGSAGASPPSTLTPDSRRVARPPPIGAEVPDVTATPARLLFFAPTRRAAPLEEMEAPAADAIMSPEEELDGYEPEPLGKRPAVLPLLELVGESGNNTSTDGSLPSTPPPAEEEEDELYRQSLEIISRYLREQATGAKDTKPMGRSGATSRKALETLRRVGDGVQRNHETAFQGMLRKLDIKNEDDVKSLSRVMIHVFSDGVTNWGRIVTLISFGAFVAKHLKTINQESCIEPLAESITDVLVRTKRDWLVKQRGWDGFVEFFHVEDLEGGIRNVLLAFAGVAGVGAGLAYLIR

[4] = Inhibition of human GST-tagged BCL-XL deltaC24 mutant using BIMBH3 mutant peptide as substrate by SPR assay
[5] = target: T1, Apoptosis regulator Bcl-2; experiment: Displacement of fluorescein labelled Puma-BH3 peptide from human BCl2 expressed in Escherichia coli BL21 (DE3) pLysS cells incubated for 2 hrs by fluorescence polarization assay
[6] = target: T2, Induced myeloid leukemia cell differentiation protein Mcl-1; experiment: Inhibition of TAMRA-labeled BIM BH3 peptide binding to human Mcl1 (171 to 327 residues) incubated for 120 mins by fluorescence polarization
[7] = target: T2, Induced myeloid leukemia cell differentiation protein Mcl-1; experiment: Displacement of fluorescein labelled Puma-BH3 peptide from His-tagged-TEV fused human Mcl-1 incubated for 2 hrs by fluorescence polarization assay
[8] = target: T1, Apoptosis regulator Bcl-2; experiment: Inhibition of Bcl-2 (unknown origin) by fluorescence polarization assay
[9] = target: T1, Apoptosis regulator Bcl-2; experiment: Inhibition of wild-type BCL-2 (unknown origin) expressed in Escherichia coli BL21 cells using biotinylated BIMBH3 or BAXBH3 peptide by surface plasmon resonance assay

T1 sequence (P10415 whole entry): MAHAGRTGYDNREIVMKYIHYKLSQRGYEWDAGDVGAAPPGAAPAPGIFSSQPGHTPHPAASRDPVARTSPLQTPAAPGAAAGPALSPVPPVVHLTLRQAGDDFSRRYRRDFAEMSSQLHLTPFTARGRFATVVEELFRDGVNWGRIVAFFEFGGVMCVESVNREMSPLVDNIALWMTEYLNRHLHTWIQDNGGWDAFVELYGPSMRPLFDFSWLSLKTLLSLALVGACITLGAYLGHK

IC50 [1]: 3.3 nM
SMILES: CC[C@H](C)[C@H](NC(=O)[C@H](CCC(=O)O)NC(=O)[C@H](CCCNC(=N)N)NC(=O)[C@H](C)NC(=O)[C@H](Cc1c[nH]c2ccccc12)NC(=O)[C@H](CCC(N)=O)NC(=O)[C@H](CCC(=O)O)NC(=O)[C@@H](N)CCC(=O)O)C(=O)NCC(=O)N[C@@H](C)C(=O)N[C@@H](CCC(N)=O)C(=O)N[C@@H](CC(C)C)C(=O)N[C@@H](CCCNC(=N)N)C(=O)N[C@@H](CCCNC(=N)N)C(=O)N[C@@H](CCSC)C(=O)N[C@@H](C)C(=O)N[C@@H](CC(=O)O)C(=O)N[C@@H](CC(=O)O)C(=O)N[C@@H](CC(C)C)C(=O)N[C@@H](CC(N)=O)C(=O)N[C@@H](C)C(=O)N[C@@H](CCC(N)=O)C(=O)N[C@@H](Cc1ccc(O)cc1)C(=O)N[C@@H](CCC(=O)O)C(=O)N[C@@H](CCCNC(=N)N)C(=O)O

IC50 [2]: 24 nM
SMILES: O=C(O)c1nc(-c2ccc3c(c2)/C(=N/Nc2nc4ccccc4s2)CCC3)sc1CCCCc1ccccc1

IC50 [3]: 1100 nM
SMILES: Cc1ccccc1-c1cccc2c(CCCOc3cccc4ccccc34)c(C(=O)O)[nH]c12

IC50 [4]: 11 nM
SMILES: CN(C)CC[C@H](CSc1ccccc1)Nc1ccc(S(=O)(=O)NC(=O)c2ccc(N3CCN(Cc4ccccc4-c4ccccc4)CC3)cc2)cc1[N+](=O)[O-]

IC50 [5]: 1300 nM
SMILES: CCCCN(CCCC)C(=O)c1cc(C)n(-c2ccccc2C(=O)N2Cc3ccccc3C[C@H]2CN)n1

IC50 [6]: 10 nM
SMILES: O=C1NS(=O)(=O)CCOCCCCCCN2C[C@@]3(CCCc4cc(Cl)ccc43)COc3ccc1cc32

IC50 [5]: 500 nM
SMILES: C[N+](C)(CC[C@H](CSc1ccccc1)Nc1ccc(S(=O)(=O)NC(=O)c2ccc(N3CCN(Cc4ccccc4-c4ccc(Cl)cc4)CC3)cc2)cc1[N+](=O)[O-])CC(=O)O

IC50 [5]: 20 nM
SMILES: COc1cc2c(cc1C(CN1CCCC1)c1ccc(-c3ccc(C(=O)NS(=O)(=O)c4ccc(C[C@H](CCN5CCOCC5)CSc5ccccc5)c(S(=O)(=O)C(F)(F)F)c4)cc3)cc1)OCO2 (some centres undefined)

IC50 [7]: 100 nM
SMILES: Cc1n[nH]c(C)c1-c1cccc2c(CCCOc3cccc4ccccc34)c(C(=O)O)[nH]c12

IC50 [7]: 520000 nM
SMILES: CCc1sc2ncnc(N[C@@H](CO)C(=O)O)c2c1-c1ccccc1

Ki [8]: 59 nM
SMILES: O=C(NS(=O)(=O)c1ccc(NC2CCOCC2)c([N+](=O)[O-])c1)c1ccc(N2CCN(CC3=C(c4ccc(Cl)cc4)COCC3)CC2)cc1

IC50 [2]: 770 nM
SMILES: C/C(=N\Nc1nc2ccccc2s1)c1ccc(-c2ccc(S(=O)(=O)NC(=O)CCCCCc3ccccc3)cc2)o1

Ki [9]: 0.36 nM
SMILES: NC[C@@H]1Cc2ccccc2CN1C(=O)c1cc2c(cc1-c1cc(C(=O)N(c3ccccc3)c3ccc(O)cc3)c3n1CCCC3)OCO2
